Reference: BindingDB's records for doi:10.1016/j.bmcl.2017.11.009 (De Montfort University, 2017)

Experiment: Inhibition of recombinant human CYP1B1 expressed in HEK293 cells assessed as potentiation of cisplatin-induced cytotoxicity by measuring cisplatin EC50 by MTT assay (Rvb = 65.01 +/- 7.01 uM)
`COc1cccc(/C=C/C(=O)c2ccncc2)c1` showed an EC50 of 10 µM. Compound `COc1ccccc1/C=C/C(=O)c1ccncc1` has an EC50 of 10 µM. With `COc1cc(/C=C/C(=O)c2ccncc2)cc(OC)c1` the EC50 was 10 µM. Compound `COc1ccc(/C=C/C(=O)c2ccncc2)c(OC)c1OC` has an EC50 of 10 µM.

Experiment: Inhibition of recombinant human CYP1A1 expressed in HEK293 cells assessed as reduction in benzo(a)pyrene-induced toxicity by measuring B[a]P EC50 at 2 times IC50 by MTT assay (Rvb = 0.8 +/- 0.14 uM)
In the case of `CCOc1cc(/C=C/C(=O)c2ccncc2)cc(OCC)c1OCC`, the EC50 is reported as 14 µM. Compound `CCOc1cc(/C=C/C(=O)c2ccncc2)cc(OC)c1OCC` has an EC50 of 14 µM. For `COc1cc(/C=C/C(=O)c2ccncc2)cc(OC)c1OC`, the EC50 was 14 µM. `CCOc1cc(/C=C/C(=O)c2ccncc2)cc(OC)c1OC` gave an EC50 of 14 µM.
